Measured values from ChEMBL document CHEMBL5096166, “Discovery of an Orally Efficacious Positive Allosteric Modulator of the Glucagon-like Peptide-1 Receptor” (J Med Chem, 2021).
The source made the active and inactive calls. The rule behind the calls is not given here.

Assays:
Mus musculus [1] = experiment: (§1) Anti-hyperglycemic activity in overnight-fasted GIPR KO C57BL/6 mouse assessed as reduction in blood glucose AUC at 10 mg/kg, po pretreated with compound for 30 mins followed by dextrose addition measured every 15 mins for 60 mins by oral glucose tolerance test relative to control; format: functional; design: scale not given: the % may be the effect or the level left; details: time 90 min, 1.5 h
[2] = target: T1, Glucagon-like peptide 1 receptor (Homo sapiens, UniProt P43220); experiment: Positive allosteric modulator activity at human GLP-1R expressed in HEK293 cells assessed as potentiation of EC20 GLP-1(9-36) induced cAMP accumulation by measuring maximal efficacy in presence of IBMX relative to GLP-1(9-36); format: functional, cell-based; details: filed as positive allosteric modulator
T1 sequence (P43220 whole entry): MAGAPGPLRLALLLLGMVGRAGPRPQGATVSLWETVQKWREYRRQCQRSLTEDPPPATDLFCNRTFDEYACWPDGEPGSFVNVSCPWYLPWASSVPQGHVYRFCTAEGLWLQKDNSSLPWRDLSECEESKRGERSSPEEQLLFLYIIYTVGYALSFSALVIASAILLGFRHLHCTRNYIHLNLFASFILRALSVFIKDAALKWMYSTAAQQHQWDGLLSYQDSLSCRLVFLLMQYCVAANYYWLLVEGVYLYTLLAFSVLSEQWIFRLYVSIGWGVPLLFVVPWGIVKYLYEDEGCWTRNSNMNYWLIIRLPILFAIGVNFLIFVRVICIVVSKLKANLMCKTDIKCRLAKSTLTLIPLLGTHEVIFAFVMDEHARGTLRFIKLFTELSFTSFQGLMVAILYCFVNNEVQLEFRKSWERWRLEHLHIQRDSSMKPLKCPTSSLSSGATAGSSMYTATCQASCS

[3] = target: T1, Glucagon-like peptide 1 receptor; experiment: Positive allosteric modulator activity at human GLP-1R expressed in HEK293 cells assessed as potentiation of EC20 GLP-1(9-36) induced cAMP accumulation in presence of IBMX relative to GLP-1(9-36); format: functional, cell-based
[4] = target: T1, Glucagon-like peptide 1 receptor; experiment: Positive allosteric modulator activity at human GLP-1R expressed in HEK293 cells assessed as fold increase in potentiation of GLP-1(9-36) induced cAMP accumulation in presence of IBMX relative to GLP-1(9-36); format: functional, cell-based
[5] = target: T1, Glucagon-like peptide 1 receptor; experiment: Positive allosteric modulator activity at human GLP-1R expressed in HEK293 cells assessed as potentiation of GLP-1(9-36) induced cAMP accumulation by measuring maximal efficacy in presence of IBMX relative to GLP-1(9-36); format: functional, cell-based; details: filed as positive allosteric modulator
[6] = Cmax in Sprague-Dawley rat at 3 mg/kg, po measured upto 16 hrs by LC-MS/MS analysis; format: ADME, organism-based; design: time < 16 hrs, dose 3 mg/kg, route po; details: in vivo
[7] = target: T1, Glucagon-like peptide 1 receptor; experiment: Agonist activity at human GLP-1R expressed in CHO-K1 cells assessed as fold increase in potentiation of EC50 GLP-1(7-36) induced beta-arrestin recruitment; format: functional, cell-based
[8] = Volume of distribution at steady state in Sprague-Dawley rat at 1 mg/kg, iv measured upto 8 hrs by LC-MS/MS analysis; format: ADME, organism-based; details: in vivo, read-out: Vdss
[9] = Cmax in Beagle dog at 1 mg/kg, iv measured upto 8 hrs by LC-MS/MS analysis; format: ADME, organism-based, Canis lupus familiaris; design: time < 8 hrs, dose 1 mg/kg, route iv; details: in vivo
[10] = AUC in Sprague-Dawley rat at 1 mg/kg, iv measured upto 8 hrs by LC-MS/MS analysis; format: ADME, organism-based; design: time < 8 hrs, dose 1 mg/kg, route iv; details: in vivo
[11] = target: T1, Glucagon-like peptide 1 receptor; experiment: Partial agonist activity at human GLP-1R expressed in HEK293 cells assessed as potentiation of GLP-1(9-36) induced cAMP accumulation in presence of IBMX; format: functional, cell-based
[12] = target: T1, Glucagon-like peptide 1 receptor; experiment: Positive allosteric modulator activity at human GLP-1R transfected in rat INS-1 832/13 cells assessed as fold increase in potentiation of GLP-1(7-36) induced cAMP accumulation at 0.1 uM; format: functional, cell-based
Mus musculus [13] = experiment: as §1, with “60 mins in presence of sitagliptin by oral” for “60 mins by oral”; format: functional; design: scale not given: the % may be the effect or the level left; details: time 90 min, 1.5 h
[14] = target: T1, Glucagon-like peptide 1 receptor; experiment: Positive allosteric modulator activity at human GLP-1R transfected in rat INS-1 832/13 cells assessed as increase in GLP-1(9-36) induced insulin levels at 3 uM in presence of high glucose; format: cell-based; details: filed as positive allosteric modulator
[15] = AUC in Sprague-Dawley rat at 3 mg/kg, po measured upto 16 hrs by LC-MS/MS analysis; format: ADME, organism-based; design: dose 3 mg/kg, time < 16 hrs, route po; details: in vivo
[16] = Tmax in Sprague-Dawley rat at 3 mg/kg, po measured upto 16 hrs by LC-MS/MS analysis; format: ADME, organism-based; details: in vivo
[17] = Half life in Beagle dog at 1 mg/kg, iv measured upto 8 hrs by LC-MS/MS analysis; format: ADME, organism-based, Canis lupus familiaris; details: in vivo
[18] = target: T1, Glucagon-like peptide 1 receptor; experiment: Positive allosteric modulator activity at human GLP-1R transfected in rat INS-1 832/13 cells assessed as potentiation of GLP-1(9-36) induced cAMP accumulation; format: functional, cell-based
[19] = target: T1, Glucagon-like peptide 1 receptor; experiment: Positive allosteric modulator activity at human GLP-1R transfected in rat INS-1 832/13 cells assessed as potentiation of GLP-1(9-36) induced cAMP accumulation by measuring maximal efficacy at 3 uM relative to GLP-1(9-36); format: functional, cell-based; details: filed as positive allosteric modulator
[20] = target: T1, Glucagon-like peptide 1 receptor; experiment: Agonist activity at human GLP-1R expressed in HEK293 cells assessed as potentiation of GLP-1(9-36) induced cAMP accumulation by measuring maximal efficacy at 0.12 uM in presence of IBMX relative to GLP-1(9-36); format: functional, cell-based; details: filed as agonist
[21] = target: T1, Glucagon-like peptide 1 receptor; experiment: Agonist activity at human GLP-1R expressed in CHO-K1 cells assessed as potentiation of GLP-1(9-36) induced beta-arrestin recruitment; format: functional, cell-based
Mus musculus [22] = experiment: (§2) Anti-hyperglycemic activity in overnight-fasted GIPR KO C57BL/6 mouse assessed as reduction in blood glucose AUC at 30 mg/kg, po pretreated with compound for 30 mins followed by dextrose addition measured every 15 mins for 60 mins by oral glucose tolerance test relative to control; format: functional; design: scale not given: the % may be the effect or the level left; details: time 90 min, 1.5 h
[23] = target: T1, Glucagon-like peptide 1 receptor; experiment: Agonist activity at human GLP-1R expressed in HEK293 cells assessed as potentiation of GLP-1(7-36) induced cAMP accumulation; format: functional, cell-based
[24] = Cmax in CD1 mouse at 3 mg/kg, po measured upto 16 hrs by LC-MS/MS analysis; format: ADME, organism-based; design: dose 3 mg/kg, time < 16 hrs, route po; details: in vivo
[25] = AUC in CD1 mouse at 3 mg/kg, po measured upto 16 hrs by LC-MS/MS analysis; format: ADME, organism-based; design: dose 3 mg/kg, time < 16 hrs, route po; details: in vivo
[26] = Cmax in Sprague-Dawley rat at 1 mg/kg, iv measured upto 8 hrs by LC-MS/MS analysis; format: ADME, organism-based; design: dose 1 mg/kg, time < 8 hrs, route iv; details: in vivo
[27] = Volume of distribution at steady state in Beagle dog at 1 mg/kg, iv measured upto 8 hrs by LC-MS/MS analysis; format: ADME, organism-based, Canis lupus familiaris; details: in vivo, read-out: Vdss
[28] = Oral bioavailability in CD1 mouse at 3 mg/kg measured upto 16 hrs by LC-MS/MS analysis; format: ADME, organism-based; details: in vivo
[29] = Clearance in Beagle dog at 1 mg/kg, iv measured upto 8 hrs by LC-MS/MS analysis; format: ADME, organism-based, Canis lupus familiaris; details: in vivo
[30] = AUC in CD1 mouse at 1 mg/kg, iv measured upto 8 hrs by LC-MS/MS analysis; format: ADME, organism-based; design: time < 8 hrs, dose 1 mg/kg, route iv; details: in vivo
[31] = Half life in CD1 mouse at 1 mg/kg, iv measured upto 8 hrs by LC-MS/MS analysis; format: ADME, organism-based; details: in vivo
[32] = Oral bioavailability in Sprague-Dawley rat at 3 mg/kg measured upto 16 hrs by LC-MS/MS analysis; format: ADME, organism-based; details: in vivo
[33] = Cmax in CD1 mouse at 1 mg/kg, iv measured upto 8 hrs by LC-MS/MS analysis; format: ADME, organism-based; design: time < 8 hrs, dose 1 mg/kg, route iv; details: in vivo
[34] = Half life in Sprague-Dawley rat at 1 mg/kg, iv measured upto 8 hrs by LC-MS/MS analysis; format: ADME, organism-based; details: in vivo
[35] = Clearance in Sprague-Dawley rat at 1 mg/kg, iv measured upto 8 hrs by LC-MS/MS analysis; format: ADME, organism-based; details: in vivo
[36] = Volume of distribution at steady state in CD1 mouse at 1 mg/kg, iv measured upto 8 hrs by LC-MS/MS analysis; format: ADME, organism-based; details: in vivo, read-out: Vdss
[37] = AUC in Beagle dog at 1 mg/kg, iv measured upto 8 hrs by LC-MS/MS analysis; format: ADME, organism-based, Canis lupus familiaris; design: time < 8 hrs, dose 1 mg/kg, route iv; details: in vivo
[38] = Half life in Sprague-Dawley rat at 3 mg/kg, po measured upto 16 hrs by LC-MS/MS analysis; format: ADME, organism-based; details: in vivo
[39] = target: T1, Glucagon-like peptide 1 receptor; experiment: Partial agonist activity at human GLP-1R expressed in HEK293 cells assessed as potentiation of GLP-1(9-36) induced cAMP accumulation by measuring maximal efficacy in presence of IBMX relative to GLP-1(9-36); format: functional, cell-based
Mus musculus [40] = experiment: as §2, with “60 mins in presence of sitagliptin by oral” for “60 mins by oral”; format: functional; design: scale not given: the % may be the effect or the level left; details: time 90 min, 1.5 h
[41] = Tmax in CD1 mouse at 3 mg/kg, po measured upto 16 hrs by LC-MS/MS analysis; format: ADME, organism-based; details: in vivo
[42] = Half life in CD1 mouse at 3 mg/kg, po measured upto 16 hrs by LC-MS/MS analysis; format: ADME, organism-based; details: in vivo
[43] = Clearance in CD1 mouse at 1 mg/kg, iv measured upto 8 hrs by LC-MS/MS analysis; format: ADME, organism-based; details: in vivo
[44] = target: T1, Glucagon-like peptide 1 receptor; experiment: Agonist activity at human GLP-1R expressed in CHO-K1 cells assessed as potentiation of GLP-1(9-36) induced beta-arrestin recruitment by measuring maximal efficacy relative to GLP-1(9-36); format: functional, cell-based
[45] = target: T1, Glucagon-like peptide 1 receptor; experiment: Agonist activity at human GLP-1R expressed in HEK293 cells assessed as potentiation of GLP-1(9-36) induced cAMP accumulation in presence of IBMX; format: functional, cell-based

## N[C@@H](CC(=O)N1CCn2c(nnc2C(F)(F)F)C1)Cc1cc(F)c(F)cc1F [SITAGLIPTIN]
Mus musculus [1]
  Activity: 18%

## CC(C(=O)O)c1ccccc1-c1cc2c(cn1)ncn2[C@H](C)c1c(Cl)ccc(C2CC2)c1Cl (some centres not stated)
[2]
  Emax: 104%
[3]
  EC50: 14 nM
[4]
  fold change (FC): 7300
[5]
  Emax: 103%

## COc1ccc(Cl)c([C@@H](C)n2cnc3ccc(-c4ccccc4[C@H]4CCCCN4)cc32)c1Cl
[2]
  Emax: 120%
[3]
  EC50: 24 nM
[4]
  fold change (FC): 15000
[5]
  Emax: 88%

## COc1ccc(Cl)c([C@@H](C)n2cnc3ccc(Br)cc32)c1Cl
[2]
  Emax: 102%
[3]
  EC50: 800 nM
[4]
  fold change (FC): 250
[5]
  Emax: 115%

## C[C@H](c1c(Cl)ccc(C2CC2)c1Cl)n1cnc2cnc(Br)cc21
[2]
  Emax: 113%
[3]
  EC50: 1800 nM
[4]
  fold change (FC): 300
[5]
  Emax: 110%

## C[C@H](c1c(Cl)ccc(C2CC2)c1Cl)n1cnc2cnc(-c3ccccc3[C@@H](C)C(=O)O)cc21
[6]
  Cmax: 183 nM
[7]
  fold change (FC): 1.9
[8]
  Vd: 1.6 L/kg
[9]
  Cmax: 6870 nM
[10]
  AUC at 8 h: 0.859 µM·h
[11]
  EC50: 1800 nM
[12]
  fold change (FC): 2.7
Mus musculus [13]
  Activity: 29%
[14]
  Activity: Active
[15]
  AUC at 16 h: 1.16 µM·h
[16]
  Tmax: 1.8 h
[17]
  half-life: 0.6 h
[18]
  EC50: 7 nM
[19]
  Emax: 87%
[20]
  Emax: 92%
[21]
  EC50: 12 nM
Mus musculus [22]
  Activity: 40%
[23]
  EC50: 0.085 nM
[24]
  Cmax: 2040 nM
[25]
  AUC at 16 h: 7.3 µM·h
Mus musculus [1]
  Activity: 9%
[26]
  Cmax: 1420 nM
[27]
  Vd: 0.3 L/kg
[2]
  Emax: 98%
[28]
  bioavailability: 67%
[29]
  clearance: 18.5 mL/min/kg
[30]
  AUC at 8 h: 3.64 µM·h
[31]
  half-life: 2.1 h
[32]
  bioavailability: 45%
[33]
  Cmax: 1430 nM
[34]
  half-life: 0.6 h
[3]
  EC50: 270 nM
[35]
  clearance: 41.9 mL/min/kg
[36]
  Vd: 1.6 L/kg
[4]
  fold change (FC): 830
[37]
  AUC at 8 h: 1.88 µM·h
[38]
  half-life: 2.9 h
[39]
  Emax: 13%
Mus musculus [40]
  Activity: 65%
[41]
  Tmax: 0.58 h
[42]
  half-life: 1.6 h
[43]
  clearance: 9 mL/min/kg
[44]
  Emax: 10%
[45]
  EC50: 7 nM
[5]
  Emax: 102%
